These results are taken from patent US20150126553A1, “BICYCLIC HETEROCYCLES CAPABLE OF MODULATING T-CELL RESPONSES, AND METHODS OF USING SAME” (Nogra Pharma Limited, priority 2012, published 2015).

In assay [1] the test system is Human peripheral blood lymphocytes (PBLs). Description: Inhibition of T lymphocyte proliferation (PHA stimulation, tritiated thymidine). The format is cell-based. The conditions noted are these: PHA stimulated lymphocytes. The protocol: Human peripheral blood lymphocytes (PBLs) were isolated from whole blood of healthy volunteers by Ficoll-Isopaque density gradient centrifugation. After washing, monocytes were separated from lymphocytes by percoll density gradient centrifugation. The lymphocytes were cultured in IMDM (Gibco, Verviers, Belgium) supplemented with 10% heat inactivated fetal calf serum.
Cells were seeded in 96 well plates and stimulated with PHA (10 μg/ml) and corresponding concentration of pharmaceuticals. After 24 hours tritiated thymidine was added to each well and left overnight. Next morning proliferation was measured by microbeta counter. Graphs were plotted with the untreated condition set to a hundred percent.

For a further assay, the system named is scaffolding protein LAT. Put plainly: Western blot of T cell receptor related signaling, phospho-LAT. Particulars: pretreated 10 minutes, stimulated 10 minutes with PHA; FIG. 2A. The format is cell-based, human. The protocol: (§1) Lymphocytes were seeded in a 6 well plate (1.0·10^7/well), pretreated for 10 minutes with S3.1, S3.4 or dexamethasone and stimulated for 10 minutes with PHA. The experiment was stopped by adding a large volume of ice cold PBS to the cells. The suspension was transferred to a tube, briefly spinned down in a centrifuge and the supernatant removed. The pellet was lysed by adding cold lysisbuffer (0.1% NP40, 50 mM TrisHCl, 1 mM EDTA, 1 mM EGTA, 150 mM NaCl, 200 μM Na3VO4, 10 mM NaF and protease inhibitors) and incubating 20 minutes on ice.
(§2) To investigate the cell signaling events that are affected by treatment with S3.1 and S3.4, lysates were supplemented with sample buffer (188 mM Tris-Cl (pH 6.8), 3% SDS, 30% glycerol, 0.01% bromophenol blue, 15% β-mercaptoethanol), heated to 95° C. for 5 minutes, cooled on ice and sonicated. Samples were then run on 10% SDS-PAGE gel, blotted to PVDF membrane and incubated with antibodies for phospho-Zap70 (Cell Signaling Technology (Beverly, Mass.)) and phospho-LAT (Cell Signaling Technology (Beverly, Mass.)). To show equal loading of the samples the blot was incubated with an antibody directed against beta-actin (Santa Cruz Biotechnology (Heidelberg, Germany)).
A general note: A western blot detects proteins with antibodies after separation by electrophoresis.

A further assay deals with kinase Zap70. Put plainly: Western blot of T cell receptor related signaling, phospho-Zap70. Type of assay: cell-based, human. The conditions noted are these: pretreated 10 minutes, stimulated 10 minutes with PHA; FIG. 2A. The protocol:
as §1, §2

Consider `c1ccc(CN2CCCC(c3ccnc(SCCN4CCCC4)n3)C2)cc1` (stereo not drawn) [Compound S3.4], for which the “effect on T lymphocyte proliferation” value in assay [1] is reported as “antiproliferative effect”. Moreover, the “LAT phosphorylation level compared to a stimulated untreated control” value in the assay on scaffolding protein LAT is on record as “lower phosphorylation levels”. Further, in the assay on kinase Zap70, the “Zap70 phosphorylation level compared to a stimulated untreated control” value was “lower phosphorylation levels”.
